Here are results for 26 compounds from patent publication US9873709B2 (priority 2013, dated 2018).

This assay has as its system JAK1-dependent STAT6 phosphorylation downstream of IL-13 stimulation in TF-1 human erythroleukemia cells. As to the kind of experiment: cells. As to conditions: TF-1, read-out: IL-13-pSTAT6 IC50.
Experimental: Inhibitor potency (EC50) was determined in cell-based assays designed to measure JAK1 dependent STAT phosphorylation.
Prior to use in the assays, TF-1 cells were starved of GM-CSF overnight in OptiMEM medium (Life Technologies, Grand Island, N.Y.) supplemented with 0.5% charcoal/dextran stripped fetal bovine serum (FBS), 0.1 mM non-essential amino acids (NEAA), and 1 mM sodium pyruvate. The assays were run in 384-well plates in serum-free OptiMEM medium using 300,000 cells per well. In a second assay approach, BEAS-2B human bronchial epithelial cells obtained from ATCC were plated at 100,000 cells per well of a 96-well plate one day prior to the experiment. The BEAS-2B assay was run in complete growth medium (bronchial epithelial basal medium plus bulletkit; Lonza; Basel, Switzerland).
Test compounds were serially diluted 1:2 in DMSO and then diluted 1:50 in medium just before use. Diluted compounds were added to the cells, for a final DMSO concentration of 0.2%, and incubated for 30 min (for the TF-1 assay) or 1 hr (for the BEAS-2B assay) at 37° C. Then, cells were stimulated with human recombinant cytokine at their respective EC90 concentrations, as previously determined for each individual lot. […] The resultant samples were frozen in the plates at −80° C. Compound mediated inhibition of STAT6 phosphorylation was measured in the cell lysates using MesoScale Discovery (MSD) technology (Gaithersburg, Md.).
As for `CN1CCCCC1C1CCCN1C(=O)c1ccc(Nc2nc3c(N4CCC(O)(c5ccc(Cl)cc5)CC4)cccn3n2)cc1` (centres unmarked) [Example 1-52, [4-[[8-[4-(4-chlorophenyl)-4-hydroxy-1-piperidyl]-[1,2,4]triazolo[1,5-a]pyridin-2-yl]amino]phenyl]-[2-(1-methyl-2-piperidyl)pyrrolidin-1-yl]methanone], the IC50 (commonly the point on the concentration scale where inhibition reaches its midpoint) stood at 21.1 nM. As for `CC(=O)N1CC2(C1)CN(C(=O)c1ccc(Nc3nc4c(N5CCC(O)(c6ccc(Cl)cc6)CC5)cccn4n3)cc1)C2` [Example 1-53, 1-[2-[4-[[8-[4-(4-chlorophenyl)-4-hydroxy-1-piperidyl]-[1,2,4]triazolo[1,5-a]pyridin-2-yl]amino]benzoyl]-2,6-diazaspiro[3.3]heptan-6-yl]ethanone], the IC50 stood at 27.4 nM. For `O=C(c1ccc(Nc2nc3c(N4CCC(O)(c5ccc(Cl)cc5)CC4)cccn3n2)cc1)N1CCN(C2CC2)CC1` [Example 1-54, [4-[[8-[4-(4-chlorophenyl)-4-hydroxy-1-piperidyl]-[1,2,4]triazolo[1,5-a]pyridin-2-yl]amino]phenyl]-(4-cyclopropylpiperazin-1-yl)methanone], the IC50 is 100 nM. With `CN1CCC2(C1)CN(C(=O)c1ccc(Nc3nc4c(N5CCC(O)(c6ccc(Cl)cc6)CC5)cccn4n3)cc1)C2` [Example 1-59, [4-[[8-[4-(4-chlorophenyl)-4-hydroxy-1-piperidyl]-[1,2,4]triazolo[1,5-a]pyridin-2-yl]amino]phenyl]-(7-methyl-2,7-diazaspiro[3.4]octan-2-yl)methanone], the IC50 was 15.5 nM. Under `CN1CCCC12CN(C(=O)c1ccc(Nc3nc4c(N5CCC(O)(c6ccc(Cl)cc6)CC5)cccn4n3)cc1)C2` [Example 1-60, [4-[[8-[4-(4-chlorophenyl)-4-hydroxy-1-piperidyl]-[1,2,4]triazolo[1,5-a]pyridin-2-yl]amino]phenyl]-(5-methyl-2,5-diazaspiro[3.4]octan-2-yl)methanone] stands 12.2 nM; under `CN1CCC(NC(=O)c2ccc(Nc3nc4c(N5CCC(O)(c6ccc(Cl)cc6)CC5)cccn4n3)cc2)C1` (centres unmarked) [Example 1-62, 4-[[8-[4-(4-chlorophenyl)-4-hydroxy-1-piperidyl]-[1,2,4]triazolo[1,5-a]pyridin-2-yl]amino]-N-(1-methylpyrrolidin-3-yl)benzamide], 22.8 nM; under `CN(C)C(=O)C1(c2ccncc2)CCCN1C(=O)c1ccc(Nc2nc3c(N4CCC(O)(c5ccc(Cl)cc5)CC4)cccn3n2)cc1` (centres unmarked) [Example 1-74, 1-[4-[[8-[4-(4-chlorophenyl)-4-hydroxy-1-piperidyl]-[1,2,4]triazolo[1,5-a]-pyridin-2-yl]amino]benzoyl]-N,N-dimethyl-2-(4-pyridyl)pyrrolidine-2-carboxamide], 33.5 nM. As for `CN1C[C@@H]2CCN(C(=O)c3ccc(Nc4nc5c(N6CCC(O)(c7ccc(Cl)cc7)CC6)cccn5n4)cc3)[C@@H]2C1` [Example 1-76, [(3aS,6aS)-5-methyl-2,3,3a,4,6,6a-hexahydropyrrolo[2,3-c]pyrrol-1-yl]-[4-[[8-[4-(4-chlorophenyl)-4-hydroxy-1-piperidyl]-[1,2,4]triazolo[1,5-a]pyridin-2-yl]amino]phenyl] methanone], the IC50 was found to be 12.7 nM. Under `CN1CCC2(CC1)CN(C(=O)c1ccc(Nc3nc4c(N5CCC(O)(c6ccc(Cl)cc6)CC5)cccn4n3)cc1)C2` [Example 1-81, [4-[[8-[4-(4-chlorophenyl)-4-hydroxy-1-piperidyl]-[1,2,4]triazolo[1,5-a]pyridin-2-yl]amino]phenyl]-(7-methyl-2,7-diazaspiro[3.5]nonan-2-yl)methanone] stands 10.9 nM; under `CN(C)C1CCN(C(=O)c2ccc(Nc3nc4c(N5CCC(O)(c6ccc(Cl)cc6)CC5)cccn4n3)cc2)CC1` [Example 1-86, [4-[[8-[4-(4-chlorophenyl)-4-hydroxy-1-piperidyl]-[1,2,4]triazolo[1,5-a]pyridin-2-yl]amino]phenyl]-[4-(dimethylamino)-1-piperidyl]methanone], 21.3 nM. Turning to `O=C(N[C@H]1CN2CCC1CC2)c1ccc(Nc2nc3c(N4CCC(O)(c5ccc(Cl)cc5)CC4)cccn3n2)cc1` [Example 1-89, 4-[[8-[4-(4-chlorophenyl)-4-hydroxy-1-piperidyl]-[1,2,4]triazolo[1,5-a]pyridin-2-yl]amino]-N-[(3R)-quinuclidin-3-yl]benzamide], the IC50 was 127 nM. Take `CN1CC(NC(=O)c2ccc(Nc3nc4c(N5CCC(O)(c6ccc(Cl)cc6)CC5)cccn4n3)cc2)C1` [Example 1-92, 4-[[8-[4-(4-chlorophenyl)-4-hydroxy-1-piperidyl]-[1,2,4]triazolo[1,5-a]pyridin-2-yl]amino]-N-(1-methylazetidin-3-yl)benzamide]: the IC50 is 59.3 nM. The figure for `O=C(NCCN1CCC(O)CC1)c1ccc(Nc2nc3c(N4CCC(O)(c5ccc(Cl)cc5)CC4)cccn3n2)cc1` [Example 1-95, 4-[[8-[4-(4-chlorophenyl)-4-hydroxy-1-piperidyl]-[1,2,4]triazolo[1,5-a]pyridin-2-yl]amino]-N-[2-(4-hydroxy-1-piperidyl)ethyl] benzamide] is 115 nM; for `CN1CCN(CCCNC(=O)c2ccc(Nc3nc4c(N5CCC(O)(c6ccc(Cl)cc6)CC5)cccn4n3)cc2)CC1` [Example 1-96, 4-[[8-[4-(4-chlorophenyl)-4-hydroxy-1-piperidyl]-[1,2,4]triazolo[1,5-a]pyridin-2-yl]amino]-N-[3-(4-methylpiperazin-1-yl)propyl]benzamide] it is 64.6 nM. As to `CN1CCN(CCNC(=O)c2ccc(Nc3nc4c(N5CCC(O)(c6ccc(Cl)cc6)CC5)cccn4n3)cc2)CC1` [Example 1-97, 4-[[8-[4-(4-chlorophenyl)-4-hydroxy-1-piperidyl]-[1,2,4]triazolo[1,5-a]pyridin-2-yl]amino]-N-[2-(4-methylpiperazin-1-yl)ethyl]benzamide], the IC50 came out at 25 nM. In the case of `O=C(NCCN1CCOCC1)c1ccc(Nc2nc3c(N4CCC(O)(c5ccc(Cl)cc5)CC4)cccn3n2)cc1` [Example 1-101, 4-[[8-[4-(4-chlorophenyl)-4-hydroxy-1-piperidyl]-[1,2,4]triazolo[1,5-a]pyridin-2-yl]amino]-N-(2-morpholinoethyl)benzamide], the IC50 worked out at 14 nM. Turning to `CN1CCCCC1CNC(=O)c1ccc(Nc2nc3c(N4CCC(O)(c5ccc(Cl)cc5)CC4)cccn3n2)cc1` (centres unmarked) [Example 1-103, 4-[[8-[4-(4-chlorophenyl)-4-hydroxy-1-piperidyl]-[1,2,4]triazolo[1,5-a]pyridin-2-yl]amino]-N-[(1-methyl-2-piperidyl)methyl]benzamide], the IC50 came out at 23.8 nM. Consider `CN1CCC(NC(=O)c2ccc(Nc3nc4c(N5CCC(O)(c6ccc(Cl)cc6)CC5)cccn4n3)cc2)CC1` [Example 1-105, 4-[[8-[4-(4-chlorophenyl)-4-hydroxy-1-piperidyl]-[1,2,4]triazolo[1,5-a]pyridin-2-yl]amino]-N-(1-methyl-4-piperidyl)benzamide], for which the IC50 is 14.1 nM. For `CN(Cc1ccncc1)C(=O)c1ccc(Nc2nc3c(N4CCC(O)(c5ccc(Cl)cc5)CC4)cccn3n2)cc1` [Example 1-111, 4-[[8-[4-(4-chlorophenyl)-4-hydroxy-1-piperidyl]-[1,2,4]triazolo[1,5-a]pyridin-2-yl]amino]-N-methyl-N-(4-pyridylmethyl)benzamide], the half-inhibitory concentration (IC50) amounted to 15.6 nM. For `CN1CCN(C(=O)C2CCN(C(=O)c3ccc(Nc4nc5c(N6CCC(O)(c7ccc(Cl)cc7)CC6)cccn5n4)cc3)CC2)CC1` [Example 1-113, [4-[[8-[4-(4-chlorophenyl)-4-hydroxy-1-piperidyl]-[1,2,4]triazolo[1,5-a]pyridin-2-yl]amino]phenyl]-[4-(4-methylpiperazine-1-carbonyl)-1-piperidyl]methanone], the IC50 was determined as 26.7 nM.

Take `O=C(c1ccc(Nc2nc3c(N4CCC(O)(c5ccc(Cl)cc5)CC4)cccn3n2)cc1)N1CCCN(c2ccncc2)CC1` [Example 1-114, [4-[[8-[4-(4-chlorophenyl)-4-hydroxy-1-piperidyl]-[1,2,4]triazolo[1,5-a]pyridin-2-yl]amino]phenyl]-[4-(4-pyridyl)-1,4-diazepan-1-yl]methanone]: the IC50 was determined as 29.7 nM. `O=C(c1ccc(Nc2nc3c(N4CCC(O)(c5ccc(Cl)cc5)CC4)cccn3n2)cc1)N1CCN(CCn2ccnc2)CC1` [Example 1-116, [4-[[8-[4-(4-chlorophenyl)-4-hydroxy-1-piperidyl]-[1,2,4]triazolo[1,5-a]pyridin-2-yl]amino]phenyl]-[4-(2-imidazol-1-ylethyl)piperazin-1-yl]methanone]: the IC50 is 34 nM. `O=C(c1ccc(Nc2nc3c(N4CCC(O)(c5ccc(Cl)cc5)CC4)cccn3n2)cc1)N1CCCCC1Cc1ccccn1` (centres unmarked) [Example 1-121, [4-[[8-[4-(4-chlorophenyl)-4-hydroxy-1-piperidyl]-[1,2,4]triazolo[1,5-a]pyridin-2-yl]amino]phenyl]-[2-(2-pyridylmethyl)-1-piperidyl]methanone]: the IC50 was 131 nM. For the compound `CN1CCCC(CNC(=O)c2ccc(Nc3nc4c(N5CCC(O)(c6ccc(Cl)cc6)CC5)cccn4n3)cc2)C1` (centres unmarked) [Example 1-141, 4-[[8-[4-(4-chlorophenyl)-4-hydroxy-1-piperidyl]-[1,2,4]triazolo[1,5-a]pyridin-2-yl]amino]-N-[(1-methyl-3-piperidyl)methyl]benzamide], the IC50 was found to be 57.9 nM. Under `CNC(=O)C1CN(C)CCN1C(=O)c1ccc(Nc2nc3c(N4CCC(O)(c5ccc(Cl)cc5)CC4)cccn3n2)cc1` (centres unmarked) [Example 1-152, 1-[4-[[8-[4-(4-chlorophenyl)-4-hydroxy-1-piperidyl]-[1,2,4]triazolo[1,5-a]pyridin-2-yl]amino]benzoyl]-N,4-dimethyl-piperazine-2-carboxamide] stands 65 nM. In the case of `CN(C)C(=O)C1CN(C(=O)c2ccc(Nc3nc4c(N5CCC(O)(c6ccc(Cl)cc6)CC5)cccn4n3)cc2)C1` [Example 1-164, 1-[4-[[8-[4-(4-chlorophenyl)-4-hydroxy-1-piperidyl]-[1,2,4]triazolo[1,5-a]pyridin-2-yl]amino]benzoyl]-N,N-dimethyl-azetidine-3-carboxamide], the IC50 is 10.8 nM.
